Reference: patent publication US12662491B2 (Redona Therapeutics, Inc., priority 2020, dated 2026)

target: T1, Zcchc11 enzyme (Homo sapiens, UniProt Q5TAX3); assay: TUTase assay (Zcchc11 assay, Lin28a-dependent polyuridylation of pre-let-7); format: biochemical; conditions: Lin28a-dependent Zcchc11 (Z11) TUTase assay; read-out: Potency Lin28a-dep Z11 IC50
T1 construct: made in house; host or cells: HEK293 cells (Zcchc11); E. coli Rosetta II (LIN28A)
T1 sequence (Q5TAX3 212-1420): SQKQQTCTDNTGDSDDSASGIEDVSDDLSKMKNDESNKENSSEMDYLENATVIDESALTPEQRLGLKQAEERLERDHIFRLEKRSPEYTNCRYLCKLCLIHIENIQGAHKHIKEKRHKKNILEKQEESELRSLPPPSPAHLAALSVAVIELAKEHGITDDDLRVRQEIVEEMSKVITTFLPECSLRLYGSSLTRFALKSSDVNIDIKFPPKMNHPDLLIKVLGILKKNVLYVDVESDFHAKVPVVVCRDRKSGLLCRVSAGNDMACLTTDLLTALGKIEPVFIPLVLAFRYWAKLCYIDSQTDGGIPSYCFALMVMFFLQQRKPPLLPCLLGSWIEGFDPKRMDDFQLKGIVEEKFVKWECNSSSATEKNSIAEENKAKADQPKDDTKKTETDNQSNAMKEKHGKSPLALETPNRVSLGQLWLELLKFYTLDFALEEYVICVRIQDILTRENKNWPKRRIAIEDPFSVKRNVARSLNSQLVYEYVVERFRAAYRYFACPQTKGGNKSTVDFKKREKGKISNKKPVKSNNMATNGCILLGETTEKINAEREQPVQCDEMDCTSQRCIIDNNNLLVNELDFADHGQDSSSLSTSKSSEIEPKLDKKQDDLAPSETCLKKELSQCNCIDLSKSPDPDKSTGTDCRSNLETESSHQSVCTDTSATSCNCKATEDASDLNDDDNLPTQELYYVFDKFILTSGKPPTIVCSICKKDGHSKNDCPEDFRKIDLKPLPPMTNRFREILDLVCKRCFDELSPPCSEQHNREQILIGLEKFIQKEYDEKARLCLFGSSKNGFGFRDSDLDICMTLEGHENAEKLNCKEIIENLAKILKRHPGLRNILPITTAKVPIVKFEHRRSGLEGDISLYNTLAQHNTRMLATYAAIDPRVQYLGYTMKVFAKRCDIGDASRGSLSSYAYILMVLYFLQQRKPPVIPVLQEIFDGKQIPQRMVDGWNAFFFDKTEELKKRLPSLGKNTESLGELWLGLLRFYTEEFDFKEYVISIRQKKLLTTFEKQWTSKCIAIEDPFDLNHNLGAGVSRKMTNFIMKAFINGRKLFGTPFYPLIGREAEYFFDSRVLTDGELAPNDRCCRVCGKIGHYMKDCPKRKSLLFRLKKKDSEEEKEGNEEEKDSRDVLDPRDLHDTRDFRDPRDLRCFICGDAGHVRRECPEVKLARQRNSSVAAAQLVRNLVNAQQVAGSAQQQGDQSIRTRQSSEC
Method in brief: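 Potency is measured as inhibition of LIN28A-driven U-tail addition to 2 nM pre-let-7 by 0.2 nM HEK293-derived Zcchc11 fragment with 5 uM UTP at room temperature. Tail growth appears as fluorescein quenching by an annealing rhodamine-A20 probe.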

Structure (SMILES) | IC50
CCc1ccccc1-n1cc(C(=O)O)c(=O)c2cc(F)c(N3CCC[C@@H]3COc3ccccn3)cc21 [Example 404, (R)-1-(2-ethylphenyl)-6-fluoro-4-oxo-7-(2-((pyridin-2-yloxy)methyl)pyrrolidin-1-yl)-1,4-dihydroquinoline-3-carboxylic acid] | 1 to 10 µM
O=C(O)c1cn(-c2ccc(OCCO)cc2)c2cc(N3CCC[C@@H]3COc3ccccn3)c(F)cc2c1=O [Example 405, (R)-6-fluoro-1-(4-(2-hydroxyethoxy)phenyl)-4-oxo-7-(2-((pyridin-2-yloxy)methyl)pyrrolidin-1-yl)-1,4-dihydroquinoline-3-carboxylic acid] | ≤ 1 µM
COCCOc1ccc(-n2cc(C(=O)O)c(=O)c3cc(F)c(N4CCC[C@@H]4COc4ccccn4)cc32)cc1 [Example 406, (R)-6-fluoro-1-(4-(2-methoxyethoxy)phenyl)-4-oxo-7-(2-((pyridin-2-yloxy)methyl)pyrrolidin-1-yl)-1,4-dihydroquinoline-3-carboxylic acid] | ≤ 1 µM
COCc1ccccc1-n1cc(C(=O)O)c(=O)c2cc(F)c(N3CCC[C@@H]3COc3ccccn3)cc21 [Example 407, (R)-6-fluoro-1-(2-(methoxymethyl)phenyl)-4-oxo-7-(2-((pyridin-2-yloxy)methyl)pyrrolidin-1-yl)-1,4-dihydroquinoline-3-carboxylic acid] | 1 to 10 µM
O=C(O)c1cn(-c2ccc(O)c(Cl)c2)c2cc(N3CCC[C@@H]3COc3ccccn3)c(F)cc2c1=O [Example 408, (R)-1-(3-chloro-4-hydroxyphenyl)-6-fluoro-4-oxo-7-(2-((pyridin-2-yloxy)methyl)pyrrolidin-1-yl)-1,4-dihydroquinoline-3-carboxylic acid] | ≤ 1 µM
O=C(O)c1cn(-c2ccc(O)c(Cl)c2)c2cc(N3CCC[C@@H]3COc3ccccn3)c(Cl)cc2c1=O [Example 409, (R)-6-chloro-1-(3-chloro-4-hydroxyphenyl)-4-oxo-7-(2-((pyridin-2-yloxy)methyl)pyrrolidin-1-yl)-1,4-dihydroquinoline-3-carboxylic acid] | ≤ 1 µM
O=C(O)c1cn(-c2ccc(O)nn2)c2cc(N3CCC[C@@H]3COc3ccccn3)c(F)cc2c1=O [Example 410, (R)-6-fluoro-1-(6-hydroxypyridazin-3-yl)-4-oxo-7-(2-((pyridin-2-yloxy)methyl)pyrrolidin-1-yl)-1,4-dihydroquinoline-3-carboxylic acid] | 1 to 10 µM
O=C(O)c1cn(-c2cnc(CO)cn2)c2cc(N3CCC[C@@H]3COc3ncccc3Cl)c(Cl)cc2c1=O [Example 411, (R)-6-chloro-7-(2-(((3-chloropyridin-2-yl)oxy)methyl)pyrrolidin-1-yl)-1-(5-(hydroxy-methyl)pyrazin-2-yl)-4-oxo-1,4-dihydroquinoline-3-carboxylic acid] | ≤ 1 µM
Cc1cccnc1OC[C@H]1CCCN1c1cc2c(cc1F)c(=O)c(C(=O)O)cn2-c1ccc(NS(C)(=O)=O)cc1 [Example 412, (R)-6-fluoro-7-(2-(((3-methylpyridin-2-yl)oxy)methyl)pyrrolidin-1-yl)-1-(4-(methyl-sulfonamido)phenyl)-4-oxo-1,4-dihydroquinoline-3-carboxylic acid] | ≤ 1 µM
COCCNc1ccc(-n2cc(C(=O)O)c(=O)c3cc(Cl)c(N4CCC[C@@H]4COc4ncccc4Cl)cc32)cn1 [Example 413, (R)-6-chloro-7-(2-(((3-chloropyridin-2-yl)oxy)methyl)pyrrolidin-1-yl)-1-(6-((2-methoxyethyl)amino)pyridin-3-yl)-4-oxo-1,4-dihydroquinoline-3-carboxylic acid] | ≤ 1 µM
O=C(O)c1cn(-c2ccc(O)nc2)c2cc(N3CCC[C@@H]3COc3ncccc3Cl)c(Cl)cc2c1=O [Example 414, (R)-6-chloro-7-(2-(((3-chloropyridin-2-yl)oxy)methyl)pyrrolidin-1-yl)-1-(6-hydroxy-pyridin-3-yl)-4-oxo-1,4-dihydroquinoline-3-carboxylic acid] | ≤ 1 µM
